According to patent publication EP1908478B1, “Pharmaceutical preparation and method of treatment of human malignancies with arginine deprivation” (Bio-Cancer Treatment International Limited, priority 2002, dated 2003):

Key:
[1] = biological target: T1, recombinant human Arginase I, native (non-pegylated), 6xHis-tagged, B. subtilis-expressed, SEQ ID NO: 3 (Homo sapiens, UniProt P05089); experiment: Arginase activity, kinetic properties (method of Ikemoto et al. 1990); assay type: biochemical; conditions: substrate arginine
T1 sequence (P05089 1-322): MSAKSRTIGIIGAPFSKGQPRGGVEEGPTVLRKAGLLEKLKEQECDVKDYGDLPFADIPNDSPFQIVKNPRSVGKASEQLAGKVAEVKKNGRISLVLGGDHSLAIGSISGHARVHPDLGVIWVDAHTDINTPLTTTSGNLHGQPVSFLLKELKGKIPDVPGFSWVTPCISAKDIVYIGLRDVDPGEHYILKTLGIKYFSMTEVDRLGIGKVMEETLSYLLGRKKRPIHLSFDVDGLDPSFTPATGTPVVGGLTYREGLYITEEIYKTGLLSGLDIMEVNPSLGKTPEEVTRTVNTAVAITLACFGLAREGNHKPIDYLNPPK

[2] = biological target: T2, pegylated Arginase (recombinant human Arginase I, SEQ ID NO: 3, modified with mPEG-SPA, MW 5,000) (Homo sapiens, UniProt P05089); experiment: as above; assay type: biochemical; conditions: substrate arginine
T2 sequence (P05089 1-322): T1 sequence (P05089 1-322)
Procedure: Moreover, about 1 mM of Mn^2+ ions and a temperature of 30-50 degree C are required to achieve maximum activity for the native Arginase.

human liver Arginase = human liver Arginase (Homo sapiens, UniProt P05089); conditions: published value in literature; substrate arginine; cited from earlier work

Which results are given for `N=C(N)NCCC[C@H](N)C(=O)O` [arginine]?
Km [1]: 1900 ± 700 µM; Vmax [1]: 518 µmol urea min^-1. mM^-1; kcat [1]: 2.0 ± 0.5 s⁻¹; Km [2]: 2900 ± 300 µM; Vmax [2]: 360 µmol urea min^-1 mM^-1; Km (human liver Arginase): 2600 µM
